Experiments:
[1] = PD/APP transgenic mouse (18 mo), tail vein, 10 mg/kg, multi-photon microscope; cited from earlier work
Lewy bodies = molecular target: T1, Lewy bodies (Homo sapiens, UniProt P37840); assay: Staining of Lewy bodies in post-mortem DLB/PD midbrain tissue; for staining on a LB (FIG. 2): key: positive staining with high contrast (++); positive staining with low contrast (+); negative staining (−); type: binding; settings: for Lewy Bodies Contrast: DLB/PD post-mortem midbrain tissue, dyes in PBS at 500 nM, 5 μM for 30 minutes; for staining on a LB (FIG. 2): DLB post-mortem midbrain tissue
T1 construct: Post-mortem midbrain tissue from DLB and PD patients was obtained from the HBTRC Brain Bank at McLean Hospital; tissue HBTRC Brain Bank at McLean Hospital; host or cells: formalin-fixed post-mortem human midbrain (DLB and PD patients)
Experimental: (§3) Post-mortem midbrain tissue from DLB and PD patients was obtained from the HBTRC Brain Bank at McLean Hospital. Tissue was fixed with formalin and immuno-stained with H3C primary antibody for synuclein and Alexa488 or Cy5 (not shown) conjugated secondary antibody. Immuno-stained tissue was incubated with fluorescent dyes in PBS at concentrations of 500 nM, 2 μM, and 5 μM for 30 minutes. Slides of tissue were imaged with Olympus Microscope at 60× with appropriate filter set.

AD Plaque = assay: Staining of plaques in AD temporal lobe sections; type: binding, human; settings: 5 μM dye in PBS; note: key: positive (+) staining for both plaques and tangles; did not bind (−) AD pathology
Experimental: (§1) Paraffin-embedded formalin-fixed tissue from the temporal lobe of AD patients was obtained through the MA ADRC Brain Bank. Sections were stained with 0.05% Thio S to visualize plaques and NFT. Tissue was then stained with 5 μM dye in PBS. Slides were imaged on an Olympus Microscope at 20×, with a GFP emission filter for Thio S, and appropriate emission ranges for the dyes.

AD NFT = assay: Staining of neurofibrillary tangles (NFT) in AD temporal lobe sections; type: binding, human; settings: 5 μM dye in PBS; note: key: positive (+) staining for both plaques and tangles; did not bind (−) AD pathology
Experimental: as §1

Lewy neurites = molecular target: T2, Lewy neurites (Homo sapiens, UniProt P37840); assay: Staining of Lewy neurites in post-mortem DLB/PD midbrain tissue; for all read-outs here: key: positive staining with high contrast (++); positive staining with low contrast (+); negative staining (−); type: binding; settings: for Lewy Neurites Contrast: DLB/PD post-mortem midbrain tissue, dyes in PBS at 500 nM, 5 μM for 30 minutes; for staining on a LN (FIG. 2): DLB post-mortem midbrain tissue
T2 construct: Post-mortem midbrain tissue from DLB and PD patients was obtained from the HBTRC Brain Bank at McLean Hospital; tissue HBTRC Brain Bank at McLean Hospital; host or cells: formalin-fixed post-mortem human midbrain (DLB and PD patients)
Experimental: as §3

[2] = Blood-brain barrier crossing by in vivo fluorescence imaging after IV injection; settings: for BBB Crossing: mouse, in vivo
Text: (§2) Wide field fluorescence images were taken with a CCD camera on an Olympus microscope.
Images were taken with a BIO-RAD MRC1024 multi-photon microscope.
as §2

Compound: [11CH3]Nc1ccc(-c2nc3ccc(O)cc3s2)cc1 [PiB]
- time to cross the BBB after IV injection [1]: ≤ 1 min

Compound: CCN(CC)c1ccc2nc3c(cc(N)c4ccccc43)[o+]c2c1.[O-][Cl+3]([O-])([O-])[O-] [Nile Blue 690 ClO4, 5-amino-9-(diethylamino)-benzo[a]phenoxazin-7-ium perchlorate]
- Lewy Bodies Contrast (Lewy bodies; 2 μM): + +
- AD Plaque Contrast (AD Plaque): −
- AD NFT Contrast (AD NFT): −
- Lewy Neurites Contrast (Lewy neurites; 2 μM): −

Compound: O=C1NC(=S)NC(=O)C1=C/C=C/C=C/c1c(O)[nH]c(=S)[nH]c1=O [THK-265]
- BBB Crossing [2]: −
- Lewy Bodies Contrast (Lewy bodies; 2 μM): +
- AD Plaque Contrast (AD Plaque): +
- AD NFT Contrast (AD NFT): −
- Lewy Neurites Contrast (Lewy neurites; 2 μM): −

Compound: CC[n+]1ccc(C=CC=Cc2ccc(N(C)C)cc2)cc1.[O-][Cl+3]([O-])([O-])[O-] [LDS 722, 4-[4-[4-(dimethylamino)phenyl]-1,3-butadienyl]-1-ethyl-pyridinium perchlorate]
- staining on a LB (FIG. 2) (Lewy bodies; 2 μM): ++
- Lewy Bodies Contrast (Lewy bodies; 2 μM): + +
- logP (Log P): 1.04
- AD Plaque Contrast (AD Plaque): + +
- AD NFT Contrast (AD NFT): + +
- staining on a LN (FIG. 2) (Lewy neurites; 2 μM): ++
- Lewy Neurites Contrast (Lewy neurites; 2 μM): +

Compound: CN1C(=CC=CC=CC=CC2=[N+](C)c3ccccc3C2(C)C)C(C)(C)c2ccccc21.[O-][Cl+3]([O-])([O-])[O-] [HITC ClO4, 2-[7-(1,3-dihydro-1,3,3-trimethyl-2H-indol-2-ylidene)-1,3,5-heptatrienyl]-1,3,3-trimethyl-3H-indolium perchlorate]
- Lewy Bodies Contrast (Lewy bodies; 2 μM): +
- AD Plaque Contrast (AD Plaque): −
- AD NFT Contrast (AD NFT): −
- Lewy Neurites Contrast (Lewy neurites; 2 μM): −

Compound: CCN=c1cc2oc3c4c5c(cc3nc-2c2ccccc12)CCCN5CCC4 [Oxazine 750, reference compound]
- staining on a LB (FIG. 2) (Lewy bodies; 5 μM): −
- staining on a LN (FIG. 2) (Lewy neurites; 5 μM): −

Compound: O=S(=O)([O-])c1ccccc1C=Cc1ccc(-c2ccc(C=Cc3ccccc3S(=O)(=O)[O-])cc2)cc1.[Na+].[Na+] [Stilbene 420, 2,2″-([1,1′-biphenyl]-4.4′-diyldi-2,1-ethenediyl)bis-benzenesulfonic acid disodium salt]
- Lewy Bodies Contrast (Lewy bodies; 2 μM): + +
- AD NFT Contrast (AD NFT): +
- Lewy Neurites Contrast (Lewy neurites; 2 μM): +

Compound: CCN1C(=CC=CC=Cc2sc3ccccc3[n+]2CC)Sc2ccccc21.[I-] [3-3′-DTDCI, 3,3′-diethylthiadicarbocyanine iodide]
- BBB Crossing [2]: −
- Lewy Bodies Contrast (Lewy bodies; 2 μM): +
- AD Plaque Contrast (AD Plaque): +
- AD NFT Contrast (AD NFT): −
- Lewy Neurites Contrast (Lewy neurites; 2 μM): −

Compound: CN(C)c1ccc(C=CC=CC2=[N+](C)c3ccccc3C2(C)C)cc1.[O-][Cl+3]([O-])([O-])[O-] [LDS 730, 2-[4-[4-(dimethylamino)phenyl]-1,3-butadienyl]-1,3,3-trimethyl-3H-indolium perchlorate]
- Lewy Bodies Contrast (Lewy bodies; 2 μM): +
- AD NFT Contrast (AD NFT): +
- Lewy Neurites Contrast (Lewy neurites; 2 μM): −

Compound: 4-[4-[4-(dimethylamino)phenyl]-1,3-butadienyl]-1-ethyl quinolinium [LDS 798]
- BBB Crossing [2]: +
- BBB crossing (wide field fluorescence time course) ([2]; wildtype mouse, IV, 10 mg/kg in 6% DMSO and 1×PBS): crosses BBB and rapidly enters brain
- Lewy Bodies Contrast (Lewy bodies; 2 μM): + +
- Log P (Log P): 1.8
- AD Plaque Contrast (AD Plaque): −
- AD NFT Contrast (AD NFT): −
- Lewy Neurites Contrast (Lewy neurites; 2 μM): −

Compound: CCN(CC)c1ccc2nc3c4ccccc4c(=O)cc-3oc2c1 [Nile Red, 9-diethylamino-5-benzo[α]phenoxazinone]
- Lewy Bodies Contrast (Lewy bodies; 2 μM): +
- logP (Log P): 3.51
- AD Plaque Contrast (AD Plaque): −
- AD NFT Contrast (AD NFT): −
- Lewy Neurites Contrast (Lewy neurites; 2 μM): −

Source: US9242015B2, “Development and screening of contrast agents for in vivo imaging of Parkinson's disease” (The General Hospital Corporation, priority 2010, dated 2016)
